{
  "source": "patent US20260109672A1",
  "about": "“SARS-COV-2 MPRO INHIBITORS AND USES THEREOF” (NXERA PHARMA UK LIMITED, priority 2022, published 2026)",
  "data": [
    {"target": "SARS-CoV-2 Mpro (Severe acute respiratory syndrome coronavirus 2, UniProt P0DTD1)", "test": "Modified SARS-CoV-2 Mpro enzyme assay (FRET, kinetic read) for reference examples", "assay_type": "biochemical", "details": "5 nM Mpro, 20 min preincubation at room temperature, mean n=2, set out in PCT/GB2022/050836", "values": [
      {"substance": "(1R,2S,5S)-N-[3-(cyclopropylamino)-2,3-dioxo-1-[(3S)-2-oxopyrrolidin-3-yl]methyl]propyl]-3-[(2S)-3,3-dimethyl-2-(2-methylpropanoylamino)butanoyl]-6,6-dimethyl-3-azabicyclo[3.1.0]hexane-2-carboxamide [Example 5]", "SARS-CoV-2 Mpro enzyme pKi assay pKi": 6.8},
      {"substance": "(1R,2S,5S)-N-[1-(cyclopropylmethyl)-3-(methylamino)-2,3-dioxo-propyl]-3-[(2S)-3,3-dimethyl-2-[(2,2,2-trifluoroacetyl)amino]butanoyl]-6,6-dimethyl-3-azabicyclo[3.1.0]hexane-2-carboxamide [Example 2]", "SARS-CoV-2 Mpro enzyme pKi assay pKi": 7.3},
      {"substance": "(1R,2S,5S)-N-(4-(cyclopropylamino)-3,4-dioxo-1-((S)-2-oxopyrrolidin-3-yl)butan-2-yl)-3-((E)-3-(2,4-difluorophenyl)acryloyl)-6,6-dimethyl-3-azabicyclo[3.1.0]hexane-2-carboxamide [Example 7]", "SARS-CoV-2 Mpro enzyme pKi assay pKi": 6.7},
      {"substance": "(1R,2S,5S)-N-[3-(cyclopropylamino)-2,3-dioxo-1-[[(3R)-2-oxo-3-piperidyl]methyl]propyl]-3-[(2S)-3,3-dimethyl-2-[(2,2,2-trifluoroacetyl)amino]butanoyl]-6,6-dimethyl-3-azabicyclo[3.1.0]hexane-2-carboxamide [Example 6]", "SARS-CoV-2 Mpro enzyme pKi assay pKi": 6.7},
      {"substance": "(1R,2S,5S)-N-(4-(cyclopropylamino)-3,4-dioxo-1-((S)-2-oxopyrrolidin-3-yl)butan-2-yl)-3-((S)-3,3-dimethyl-2-(2,2,2-trifluoroacetamido)butanoyl)-6,6-dimethyl-3-azabicyclo[3.1.0]hexane-2-carboxamide [Example 1]", "SARS-CoV-2 Mpro enzyme pKi assay pKi": 7.8},
      {"substance": "(1R,2S,5S)-N-[3-amino-1-(cyclopropylmethyl)-2,3-dioxo-propyl]-6,6-dimethyl-3-[(2S)-3-methyl-2-[(2,2,2-trifluoroacetyl)amino]butanoyl]-3-azabicyclo[3.1.0]hexane-2-carboxamide [Example 3]", "SARS-CoV-2 Mpro enzyme pKi assay pKi": 7.1},
      {"substance": "(1R,2S,5S)-N-[3-amino-1-(cyclobutylmethyl)-2,3-dioxo-propyl]-3-[(2S)-3,3-dimethyl-2-[(2,2,2-trifluoroacetyl)amino]butanoyl]-6,6-dimethyl-3-azabicyclo[3.1.0]hexane-2-carboxamide [Example 4]", "SARS-CoV-2 Mpro enzyme pKi assay pKi": 7.3}
    ]}
  ]
}
